What all share (assay type): biochemical
One assay deals with T1, Akt2 (Homo sapiens, UniProt P31751).
T1 construct: a middle T tag was added to the 5′ end of the full length Akt2; middle T tag (EYMPME) (N); biotin tag (from pS2neo vector); made in house; host or cells: Drosophila S2 cells
The assay can be described thus: Akt kinase assay, phosphorylation of GSK3-derived peptide. The following applies: GSK3 peptide substrate. The text has this:
(§1) The ^33P-labeled biotinylated product can be captured and detected using Streptavidin coated Flashplates (NEN LifeSciences) or Streptavidin Membrane Filter Plates (Promega).
(§2) GSK3α (S21) Peptide #3928, biotin-[…] PG (SEQ.ID.NO.: 15), FW=1517.8 (obtained from Macromolecular Resources) for Streptavidin Flashplate or Streptavidin Filter Plate detection.
(§3) GSK3α (S21) Peptide #G80613, […] (SEQ.ID.NO.: 16), FW=1547.8 (obtained from Research Genetics) for Phosphocellulose filter plate detection.
(§4) The reactions were then incubated at room temperature for 45 minutes.
(§5) 200 μl of stopped reaction was transferred to a Streptavidin Flashplate® PLUS (NEN Life Sciences, catalog no. SMP103). The plate was incubated for ≧10 minutes at room temperature on a plate shaker. The contents of each well was aspirated, and the wells rinsed 2 times with 200 μl TBS per well. The wells were then washed 3 times for 5 minutes with 200 μl TBS per well with the plates incubated at room temperature on a platform shaker during wash steps.
(§6) The plates were covered with sealing tape and counted using the Packard TopCount with the appropriate settings for counting [^33P] in Flashplates.
(§7) The enzymatic reactions as described in Step I of the Streptavidin Flash Plate Assay above were performed.
(§8) The reaction was stopped by adding 20 μl of 7.5M Guanidine Hydrochloride.
(§9) The plate was then washed using a vacuum manifold as follows: 1) 4×200 μl/well of 2M NaCl; 2) 6×200 μl/well of 2M NaCl with 1% H3PO4; 3)2×200 μl/well of diH20; and 4)2×100 μl/well of 95% Ethanol. The membranes were then allowed to air dry completely before adding scintillant.
(§10) The bottom of the plate was sealed with white backing tape, 30 μl/well of Microscint 20 (Packard Instruments, catalog no. 6013621) was added. The top of the plate was sealed with clear sealing tape, and the plate then counted using the Packard TopCount with the appropriate settings for [^33P] with liquid scintillant.
(§11) The enzymatic reactions were performed as described in Step 1 of the Streptavidin Flash Plate Assay (above) utilizing […] (SEQ.ID. NO.: 16) as the substrate in place of biotin-[…].
(§12) The reaction was stopped by adding 20 μl of 0.75% H3PO4.
(§13) The bottom of the plate was sealed with white backing tape, then 30 μl/well of Microscint 20 was added. The top of the plate was sealed with clear sealing tape, and the plate counted using the Packard TopCount with the appropriate settings for [^33P] and liquid scintillant.

A further assay addresses T2, active human Akt1 (Homo sapiens, UniProt P31749).
T2 construct: purchased Upstate Biotechnology 14-276
The description is as above. The following applies: GSK3 peptide substrate; read-out: GSK3 Peptide Substrate IC50 (μM) Akt-1.
Excerpt: as §1, §2, §3, §4, §5, §6, §7, §8, §9, §10, §11, §12, §13

The next assay concerns the target T3, delta PH-Akt1 (Homo sapiens, UniProt P31749).
T3 construct: PCR deletion mutagenesis was done using the full length Akt1 gene in the pS2neo vector as template; middle T tag (EYMPME) (N); biotin tag (from pS2neo vector); made in house; host or cells: Drosophila S2 cells
Put plainly: Akt kinase assay, phosphorylation of GSK3-derived peptide (PH domain deleted mutant). To be noted: GSK3 peptide substrate; Akt1 lacking PH domain; read-out: GSK3 Peptide Substrate IC50 (μM) Akt-1 delta PH.
Excerpt: For the expression of a pleckstrin homology domain (PH ) deleted (Δ aa 4-129, which includes deletion of a portion of the Akt1 hinge region) version of Akt1, PCR deletion mutagenesis was done using the full length Akt1 gene in the pS2neo vector as template. […] The final PCR product was digested with KpnI and SmaI and ligated into the pS2neo full length Akt1 KpnI/Sma I cut vector, effectively replacing the 5′ end of the clone with the deleted version.
as §1, §2, §3, §4, §5, §6, §7, §8, §9, §10, §11, §12, §13

The target in a further assay is T4, Akt3 (Homo sapiens, UniProt Q9Y243).
T4 construct: a middle T tag was added to the 5′ end of the full length Akt3 clone; middle T tag (EYMPME) (N); biotin tag (from pS2neo vector); made in house; host or cells: Drosophila S2 cells
The assay can be described thus: Akt kinase assay, phosphorylation of GSK3-derived peptide. The following applies: GSK3 peptide substrate. As for the experimental part: as §1, §4, §5, §6, §7, §8, §9
The top of the plate was sealed with clear sealing tape, and the plate then counted using the Packard TopCount with the appropriate settings for [^33P] with liquid scintillant. […]

In the next assay the target is T5, PKA catalytic subunit (Bos taurus, UniProt P00517).
T5 construct: purchased UBI (Upstate Biotechnology) 14-114
The assay can be described thus: PKA assay (counter screen), Kemptide phosphorylation. The following applies: read-out: Counter screens IC50 (μM) PKA. As for the experimental part:
Each individual PKA assay consists of the following components:
1) 10 μl 5× PKA assay buffer (200 mM Tris pH7.5, 100 mM MgCl2, 5 mM 2-mercaptoethanol, 0.5 mM EDTA)
2) 10 μl of a 50 μM stock of Kemptide (Sigma) diluted into water
3) 10 μl ^33P-ATP (prepared by diluting 1.0 μl ^33P-ATP [10 mCi/ml] into 200 μl of a 50 μM stock of unlabeled ATP)
4) 10 μl appropriate solvent control dilution or inhibitor dilution
Assays were assembled in 96 deep-well assay plates. Components #3 and #4 were premixed and in a separate tube, a mixture containing equal volumes of components #1, #2, and #5 was prepared. The assay reaction was initiated by adding 30 μl of the components #1, #2, and #5 mixture to wells containing ^33P-ATP and inhibitor. The liquid in the assay wells was mixed and the assay reactions incubated for 20 minutes at room temperature. The reactions were stopped by adding 50 μl 100 mM EDTA and 100 mM sodium pyrophosphate and mixing.
The enzyme reaction product (phosphorylated Kemptide) was quantitated using p81 phosphocellulose 96 well filter plates (Millipore). Each well of a p81 filter plate was fill with 75 mM phosphoric acid. The wells were aspirated and 170 μl of 75 mM phosphoric acid was added to each well. […] The peptide was trapped on filter following the application of a vacuum. The filters were washed 5× by filling wells with 75 mM phosphoric acid followed by aspiration. After the final wash, the filters were allowed to air dry. 30 μl scintillation fluid was added to each well and the filters counted on a TopCount (Packard).

A further assay has as its system PKC (mix of isoforms). Put plainly: PKC assay (counter screen), myelin basic protein phosphorylation. The following applies: read-out: Counter screens IC50 (μM) PKC. As for the experimental part: Each PKC assay consists of the following components:
1) 5 μl 10×PKC co-activation buffer (2.5 mM EGTA, 4 mM CaCl2)
2) 10 μl 5×PKC activation buffer (1.6 mg/ml phosphatidylserine, 0.16 mg/ml diacylglycerol, 100 mM Tris pH 7.5, 50 mM MgCl, 5 mM 2-mercaptoethanol)
3) 5 μl ^33P-ATP (prepared by diluting 1.0 μl ^33P-ATP [10 mCi/nil] into 100 μl of a 100 μM stock of unlabeled ATP)
4) 10 μl of a 350 μg/ml stock of myelin basic protein (MBP, UBI) diluted in water
5) 10 μl appropriate solvent control or inhibitor dilution
Final assay concentrations were as follows: 0.25 mM EGTA, 0.4 mM CaCl, 20 mM Tris pH 7.5, 10 mM MgCl, 1 mM 2-mercaptoethanol, 0.32 mg/ml phosphatidylserine, 0.032 mg/mil diacylglycerol, 10 μM 33P-ATP, 70 μg/ml MBP, 10 ng/ml PKC, 0.1 mg/ml BSA.
Assays are performed using 96 deep well assay plates. In each assay well 10 μl of solvent control or appropriate inhibitor dilution with 5 μl ^33P-ATP (components #5 and #3) were premixed. […] The liquid in the assay wells was thoroughly mixed and the assay reactions incubated for 20 minutes at room temperature. The reactions were stopped by adding 100 mM EDTA (50 μl) and 100 mM sodium pyrophosphate (50 μl) and mixing. Phosphorylated MBP was collected on PVDF membranes in 96 well filter plates and quantitated by scintillation counting.

T2 sequence (P31749 whole entry): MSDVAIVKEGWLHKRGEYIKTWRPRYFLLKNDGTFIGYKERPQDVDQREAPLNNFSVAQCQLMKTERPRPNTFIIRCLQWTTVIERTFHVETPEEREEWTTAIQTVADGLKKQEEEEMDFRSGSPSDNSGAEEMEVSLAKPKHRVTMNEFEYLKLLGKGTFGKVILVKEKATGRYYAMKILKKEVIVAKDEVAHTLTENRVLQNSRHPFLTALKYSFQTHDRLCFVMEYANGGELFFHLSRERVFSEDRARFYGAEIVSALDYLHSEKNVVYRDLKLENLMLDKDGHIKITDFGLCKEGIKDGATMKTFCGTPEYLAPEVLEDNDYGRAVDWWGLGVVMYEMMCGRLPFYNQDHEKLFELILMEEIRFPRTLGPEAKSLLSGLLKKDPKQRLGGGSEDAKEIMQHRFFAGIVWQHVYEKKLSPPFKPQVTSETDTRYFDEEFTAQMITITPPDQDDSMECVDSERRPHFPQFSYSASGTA
T1 sequence (P31751 whole entry): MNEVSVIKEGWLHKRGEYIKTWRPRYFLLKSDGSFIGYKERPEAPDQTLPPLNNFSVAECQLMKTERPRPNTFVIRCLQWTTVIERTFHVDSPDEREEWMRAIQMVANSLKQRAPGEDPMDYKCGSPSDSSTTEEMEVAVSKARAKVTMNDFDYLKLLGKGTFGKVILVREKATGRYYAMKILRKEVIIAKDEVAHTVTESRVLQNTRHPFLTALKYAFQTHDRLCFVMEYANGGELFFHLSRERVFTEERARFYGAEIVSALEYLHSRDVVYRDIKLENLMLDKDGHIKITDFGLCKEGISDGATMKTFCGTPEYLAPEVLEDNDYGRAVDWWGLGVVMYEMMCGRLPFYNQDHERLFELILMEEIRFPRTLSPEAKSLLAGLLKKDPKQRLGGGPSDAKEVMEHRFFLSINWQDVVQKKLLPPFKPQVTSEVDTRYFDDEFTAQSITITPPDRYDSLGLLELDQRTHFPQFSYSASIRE
T3 sequence (P31749 with tags, fused parts or gaps): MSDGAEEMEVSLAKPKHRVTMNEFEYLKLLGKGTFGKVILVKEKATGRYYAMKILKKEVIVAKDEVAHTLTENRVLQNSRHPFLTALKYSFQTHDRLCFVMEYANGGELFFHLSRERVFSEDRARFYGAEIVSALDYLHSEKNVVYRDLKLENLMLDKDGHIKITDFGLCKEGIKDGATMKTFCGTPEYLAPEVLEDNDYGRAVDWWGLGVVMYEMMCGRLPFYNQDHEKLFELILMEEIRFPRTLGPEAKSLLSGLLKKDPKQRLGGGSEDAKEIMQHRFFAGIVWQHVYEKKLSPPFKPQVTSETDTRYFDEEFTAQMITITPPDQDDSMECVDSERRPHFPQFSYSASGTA
T4 sequence (Q9Y243 whole entry): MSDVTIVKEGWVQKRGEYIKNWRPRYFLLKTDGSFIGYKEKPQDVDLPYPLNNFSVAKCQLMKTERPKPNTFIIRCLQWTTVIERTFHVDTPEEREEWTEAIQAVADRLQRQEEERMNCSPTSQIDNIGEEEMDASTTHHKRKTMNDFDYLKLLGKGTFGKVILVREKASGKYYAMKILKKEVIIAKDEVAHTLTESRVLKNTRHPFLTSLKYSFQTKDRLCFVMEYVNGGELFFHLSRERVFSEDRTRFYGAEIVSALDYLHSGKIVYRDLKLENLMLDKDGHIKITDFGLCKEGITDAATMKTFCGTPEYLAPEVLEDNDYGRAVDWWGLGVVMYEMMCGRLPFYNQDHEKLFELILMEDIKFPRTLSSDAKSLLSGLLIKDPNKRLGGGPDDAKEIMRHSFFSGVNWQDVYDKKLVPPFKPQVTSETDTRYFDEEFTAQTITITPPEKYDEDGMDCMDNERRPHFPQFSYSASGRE

As for `CN(C)CC(C)(C)CNc1nn2c(-c3ccccc3)nnc2cc1C1CCC1` [Compound 1, N′-(7-Cyclobutyl-3-phenyl-[1,2,4]triazolo[4,3-b]pyridazin-6-yl)-2,2,N,N-tetramethyl-propane-1,3-diamine], the IC50 is over 50 µM against Akt2; 1.4 µM on active human Akt1; over 50 µM on delta PH-Akt1; over 50 µM at Akt3; over 40 µM on PKA catalytic subunit; over 40 µM with PKC (mix of isoforms).

As to `OCCOc1nn2c(-c3ccccc3)nnc2cc1-c1ccccc1` [Compound 8, 6-(2-Hydroxyethyl)oxy-3 7-diphenyl-[1,2,4]triazolo[4,3-b]pyridazine], the IC50 on active human Akt1 was 15.9 µM; on PKA catalytic subunit it was over 40 µM; with PKC (mix of isoforms), over 40 µM.

For `CN(C)CC(C)(C)CNc1nn2c(-c3cc(F)cc(F)c3)nnc2cc1C1CCC1` [Compound 2, N′-(7-Cyclobutyl-3-(3,5-difluoro-phenyl)-[1,2,4]triazolo[4,3-b]pyridazin-6-yl)-2,2,N,N-tetramethyl-propane-1,3-diamine], the IC50 is over 50 µM on Akt2; 0.42 µM at active human Akt1; over 50 µM at delta PH-Akt1; over 50 µM at Akt3; over 40 µM at PKA catalytic subunit; over 40 µM in the assay on PKC (mix of isoforms).

Turning to “6-(2-Hydroxybutyl)oxy-3,7-diphenyl-[1,2,4]triazolo[4,3-b]pyridazine [Compound 9]”, the IC50 was over 50 µM on Akt2; 4.65 µM at active human Akt1; over 50 µM on delta PH-Akt1; over 50 µM at Akt3; over 40 µM at PKA catalytic subunit; over 40 µM in the assay on PKC (mix of isoforms).

Turning to `Nc1ccc(-c2nc3ccccc3nc2-c2ccc(N)cc2)cc1` [Compound 11, 2,3-bis(4-aminophenyl)-quinoxaline], the IC50 at Akt2 was 45 µM; on active human Akt1, 6.1 µM; at delta PH-Akt1 it was over 50 µM; against Akt3 it was over 100 µM; on PKA catalytic subunit it was over 80 µM; in the assay on PKC (mix of isoforms), over 80 µM.

`CN(C)CC(C)(C)CNc1nn2c(-c3cccc(F)c3)nnc2cc1C1CCC1` [Compound 5, N′-(7-Cyclobutyl-3-(3-fluoro-phenyl)-[1,2,4]triazolo[4,3-b]pyridazin-6-yl)-2,2,N,N-tetramethyl-propane-1,3-diamine]: the IC50 against Akt2 was over 50 µM; at active human Akt1, 0.4 µM; at delta PH-Akt1 it was over 50 µM; on Akt3, over 50 µM; on PKA catalytic subunit it was over 40 µM; with PKC (mix of isoforms), over 40 µM.

Turning to `CN(C)CC(C)(C)CNc1nn2c(-c3ccc(F)cc3)nnc2cc1C1CCC1` [Compound 4, N′-(7-Cyclobutyl-3-(4-fluoro-phenyl)-[1,2,4]triazolo[4,3-b]pyridazin-6-yl)-2,2,N,N-tetramethyl-propane-1,3-diamine], the IC50 on Akt2 is over 50 µM; at active human Akt1, 2.03 µM; on delta PH-Akt1 it was over 50 µM; at Akt3, over 50 µM; on PKA catalytic subunit, over 40 µM; in the assay on PKC (mix of isoforms), over 40 µM.

Turning to `CN(C)CC(C)(C)CNc1nn2c(-c3ccccc3)nnc2c2ccccc12` [Compound 6, 2,2,N,N-tetramethyl-N-(3-phenyl-[1,2,4]triazolo[3,4-a]phthalazin-6-yl)-propane-1,3-diamine], the IC50 against Akt2 was over 50 µM; at active human Akt1, 10.5 µM; at delta PH-Akt1 it was over 50 µM; at Akt3 it was over 50 µM; on PKA catalytic subunit, over 40 µM; with PKC (mix of isoforms), over 40 µM.

Consider `COc1ccc(-c2nnc3c4ccccc4c(NCC(C)(C)CN(C)C)nn23)cc1` [Compound 7, N′-[3-(4-Methoxy-phenyl)-[1,2,4]triazolo[4,3-a]phthalazin-6-yl)-2,2,N,N-tetramethyl-propane-1,3-diamine], for which the IC50 against Akt2 was over 50 µM; on active human Akt1, 3.88 µM; at delta PH-Akt1, over 50 µM; against Akt3 it was over 50 µM; on PKA catalytic subunit, over 40 µM; in the assay with PKC (mix of isoforms) it was over 40 µM.

As to `CN(C)CC(C)(C)CNc1nn2c(-c3ccc(F)c(F)c3)nnc2cc1C1CCC1` [Compound 3, N′-(7-Cyclobutyl-3-(3,4-difluoro-phenyl)-[1,2,4]triazolo[4,3-b]pyridazin-6-yl)-2,2,N,N-tetramethyl-propane-1,3-diamine], the IC50 against Akt2 was over 50 µM; on active human Akt1, 0.91 µM; at delta PH-Akt1 it was over 50 µM; at Akt3, over 50 µM; at PKA catalytic subunit it was over 40 µM; with PKC (mix of isoforms), over 40 µM.

The record behind these values is patent US20040106540A1, “Method of treating cancer” (priority 2003, published 2004).
